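Exposure lasted 48 hours, with cells grown in 96-well plates and compounds tested at five concentrations. Here, GI50 denotes the concentration required for 50% inhibition of growth. TGI marks complete inhibition of growth.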 Where a SMILES comes first, the peptide text is derived from it. [ ]: non-standard residue; d: D form. The star is where a group is joined. ξ: configuration not given here. X6 = FC(F)(F)c1cc(NC(=S)*)cc(C(F)(F)F)c1; ξF = NC(Cc1ccccc1)C(=O)O
These compounds were tested on OVCAR-4 ovarian (assay: NCI anticancer screen, dose series, 48 h).

Structure (SMILES)	GI50 [µM]	TGI [µM]
OCc1ccc(N2CCC2c2ccc(F)cc2)cc1Cl (stereo not drawn)	0.925	> 59.3
COC(=O)c1cc2c(n1S(=O)(=O)c1ccc(C)cc1)C(=O)C(=O)c1[nH]cc(C(=O)OCc3ccccc3)c1-2		0.987
O=C(Nc1ccccc1OC(F)(F)F)Nc1n[nH]c2ccccc12	37.7	> 100
COC(=O)[C@@H](NC(=O)CNC(=O)[C@H]1CCCN1C(=O)C(Cc1ccccc1)NC(=S)Nc1cc(C(F)(F)F)cc(C(F)(F)F)c1)C(C)C (stereo partly drawn) (X6-[ξF][dP]GV-OMe)	3.17	17.6

The compounds below were run on ACHN renal (assay: NCI anticancer screen, dose series, 48 h).

Structure (SMILES)	GI50 [µM]	TGI [µM]
OCc1ccc(N2CCC2c2ccc(F)cc2)cc1Cl (stereo not drawn)	30.8	> 100
COC(=O)c1cc2c(n1S(=O)(=O)c1ccc(C)cc1)C(=O)C(=O)c1[nH]cc(C(=O)OCc3ccccc3)c1-2		0.682
O=C(Nc1ccccc1OC(F)(F)F)Nc1n[nH]c2ccccc12	31.1	> 100
COC(=O)[C@@H](NC(=O)CNC(=O)[C@H]1CCCN1C(=O)C(Cc1ccccc1)NC(=S)Nc1cc(C(F)(F)F)cc(C(F)(F)F)c1)C(C)C (stereo partly drawn) (X6-[ξF][dP]GV-OMe)	3.36	10.7

Each compound was assayed on MDA-MB-435 (assay: NCI anticancer screen, dose series, 48 h).

Structure (SMILES)	GI50 [µM]	TGI [µM]
OCc1ccc(N2CCC2c2ccc(F)cc2)cc1Cl (stereo not drawn)	26.6	> 75.7
COC(=O)c1cc2c(n1S(=O)(=O)c1ccc(C)cc1)C(=O)C(=O)c1[nH]cc(C(=O)OCc3ccccc3)c1-2		0.0301
O=C(Nc1ccccc1OC(F)(F)F)Nc1n[nH]c2ccccc12	51.5	> 100
COC(=O)[C@@H](NC(=O)CNC(=O)[C@H]1CCCN1C(=O)C(Cc1ccccc1)NC(=S)Nc1cc(C(F)(F)F)cc(C(F)(F)F)c1)C(C)C (stereo partly drawn) (X6-[ξF][dP]GV-OMe)	2.79	8.12

What follows are compounds tested on A498 renal (assay: NCI anticancer screen, dose series, 48 h).

Structure (SMILES)	GI50 [µM]	TGI [µM]
OCc1ccc(N2CCC2c2ccc(F)cc2)cc1Cl (stereo not drawn)	0.0584	0.244
COC(=O)c1cc2c(n1S(=O)(=O)c1ccc(C)cc1)C(=O)C(=O)c1[nH]cc(C(=O)OCc3ccccc3)c1-2		3.26
O=C(Nc1ccccc1OC(F)(F)F)Nc1n[nH]c2ccccc12	> 100	> 100
COC(=O)[C@@H](NC(=O)CNC(=O)[C@H]1CCCN1C(=O)C(Cc1ccccc1)NC(=S)Nc1cc(C(F)(F)F)cc(C(F)(F)F)c1)C(C)C (stereo partly drawn) (X6-[ξF][dP]GV-OMe)	2.11	7.92

The compounds below were run on MCF7 breast (assay: NCI anticancer screen, dose series, 48 h).

Structure (SMILES)	GI50 [µM]	TGI [µM]
OCc1ccc(N2CCC2c2ccc(F)cc2)cc1Cl (stereo not drawn)	0.69	24.5
COC(=O)c1cc2c(n1S(=O)(=O)c1ccc(C)cc1)C(=O)C(=O)c1[nH]cc(C(=O)OCc3ccccc3)c1-2		0.174
O=C(Nc1ccccc1OC(F)(F)F)Nc1n[nH]c2ccccc12	1.75	> 100
COC(=O)[C@@H](NC(=O)CNC(=O)[C@H]1CCCN1C(=O)C(Cc1ccccc1)NC(=S)Nc1cc(C(F)(F)F)cc(C(F)(F)F)c1)C(C)C (stereo partly drawn) (X6-[ξF][dP]GV-OMe)	2.86	11.3

What follows are compounds tested on MDA-MB-231 breast (assay: NCI anticancer screen, dose series, 48 h).

Structure (SMILES)	GI50 [µM]	TGI [µM]
OCc1ccc(N2CCC2c2ccc(F)cc2)cc1Cl (stereo not drawn)	22.6	> 68.3
COC(=O)c1cc2c(n1S(=O)(=O)c1ccc(C)cc1)C(=O)C(=O)c1[nH]cc(C(=O)OCc3ccccc3)c1-2		0.168
O=C(Nc1ccccc1OC(F)(F)F)Nc1n[nH]c2ccccc12	17.9	> 100
COC(=O)[C@@H](NC(=O)CNC(=O)[C@H]1CCCN1C(=O)C(Cc1ccccc1)NC(=S)Nc1cc(C(F)(F)F)cc(C(F)(F)F)c1)C(C)C (stereo partly drawn) (X6-[ξF][dP]GV-OMe)	1.48	3.14

Each compound was assayed on HS 578T breast (assay: NCI anticancer screen, dose series, 48 h).

Structure (SMILES)	GI50 [µM]	TGI [µM]
OCc1ccc(N2CCC2c2ccc(F)cc2)cc1Cl (stereo not drawn)	26.7	> 86.8
COC(=O)c1cc2c(n1S(=O)(=O)c1ccc(C)cc1)C(=O)C(=O)c1[nH]cc(C(=O)OCc3ccccc3)c1-2		5.8
O=C(Nc1ccccc1OC(F)(F)F)Nc1n[nH]c2ccccc12	19.4	> 100
COC(=O)[C@@H](NC(=O)CNC(=O)[C@H]1CCCN1C(=O)C(Cc1ccccc1)NC(=S)Nc1cc(C(F)(F)F)cc(C(F)(F)F)c1)C(C)C (stereo partly drawn) (X6-[ξF][dP]GV-OMe)	2.47	8.49

Each compound was assayed on UO-31 renal (assay: NCI anticancer screen, dose series, 48 h).

Structure (SMILES)	GI50 [µM]	TGI [µM]
OCc1ccc(N2CCC2c2ccc(F)cc2)cc1Cl (stereo not drawn)	20.8	76.3
COC(=O)c1cc2c(n1S(=O)(=O)c1ccc(C)cc1)C(=O)C(=O)c1[nH]cc(C(=O)OCc3ccccc3)c1-2		0.685
O=C(Nc1ccccc1OC(F)(F)F)Nc1n[nH]c2ccccc12	17.4	> 100
COC(=O)[C@@H](NC(=O)CNC(=O)[C@H]1CCCN1C(=O)C(Cc1ccccc1)NC(=S)Nc1cc(C(F)(F)F)cc(C(F)(F)F)c1)C(C)C (stereo partly drawn) (X6-[ξF][dP]GV-OMe)	2.91	13.9

These compounds were tested on U251 CNS (assay: NCI anticancer screen, dose series, 48 h).

Structure (SMILES)	GI50 [µM]	TGI [µM]
OCc1ccc(N2CCC2c2ccc(F)cc2)cc1Cl (stereo not drawn)	3.92	> 46.5
COC(=O)c1cc2c(n1S(=O)(=O)c1ccc(C)cc1)C(=O)C(=O)c1[nH]cc(C(=O)OCc3ccccc3)c1-2		0.809
O=C(Nc1ccccc1OC(F)(F)F)Nc1n[nH]c2ccccc12	31.1	> 100

What follows are compounds tested on CCRF-CEM leukemia (assay: NCI anticancer screen, dose series, 48 h).

Structure (SMILES)	GI50 [µM]	TGI [µM]
OCc1ccc(N2CCC2c2ccc(F)cc2)cc1Cl (stereo not drawn)	26	> 82.9
COC(=O)c1cc2c(n1S(=O)(=O)c1ccc(C)cc1)C(=O)C(=O)c1[nH]cc(C(=O)OCc3ccccc3)c1-2		1.05
COC(=O)[C@@H](NC(=O)CNC(=O)[C@H]1CCCN1C(=O)C(Cc1ccccc1)NC(=S)Nc1cc(C(F)(F)F)cc(C(F)(F)F)c1)C(C)C (stereo partly drawn) (X6-[ξF][dP]GV-OMe)	3.17	35.1

What follows are compounds tested on RPMI-8226 leukemia (assay: NCI anticancer screen, dose series, 48 h).

Structure (SMILES)	GI50 [µM]	TGI [µM]
OCc1ccc(N2CCC2c2ccc(F)cc2)cc1Cl (stereo not drawn)	6.56	31.6
COC(=O)c1cc2c(n1S(=O)(=O)c1ccc(C)cc1)C(=O)C(=O)c1[nH]cc(C(=O)OCc3ccccc3)c1-2		0.515
O=C(Nc1ccccc1OC(F)(F)F)Nc1n[nH]c2ccccc12	5.2	53.1

What follows are compounds tested on HOP-92 NSCLC (assay: NCI anticancer screen, dose series, 48 h).

Structure (SMILES)	GI50 [µM]	TGI [µM]
OCc1ccc(N2CCC2c2ccc(F)cc2)cc1Cl (stereo not drawn)	3.14	25.1
COC(=O)c1cc2c(n1S(=O)(=O)c1ccc(C)cc1)C(=O)C(=O)c1[nH]cc(C(=O)OCc3ccccc3)c1-2		0.725
O=C(Nc1ccccc1OC(F)(F)F)Nc1n[nH]c2ccccc12	12.9	83.2
COC(=O)[C@@H](NC(=O)CNC(=O)[C@H]1CCCN1C(=O)C(Cc1ccccc1)NC(=S)Nc1cc(C(F)(F)F)cc(C(F)(F)F)c1)C(C)C (stereo partly drawn) (X6-[ξF][dP]GV-OMe)	1.95	6.37

These compounds were tested on NCI-H226 lung (assay: NCI anticancer screen, dose series, 48 h).

Structure (SMILES)	GI50 [µM]	TGI [µM]
OCc1ccc(N2CCC2c2ccc(F)cc2)cc1Cl (stereo not drawn)	0.0912	0.322
COC(=O)c1cc2c(n1S(=O)(=O)c1ccc(C)cc1)C(=O)C(=O)c1[nH]cc(C(=O)OCc3ccccc3)c1-2		0.462
O=C(Nc1ccccc1OC(F)(F)F)Nc1n[nH]c2ccccc12	26.1	> 100
COC(=O)[C@@H](NC(=O)CNC(=O)[C@H]1CCCN1C(=O)C(Cc1ccccc1)NC(=S)Nc1cc(C(F)(F)F)cc(C(F)(F)F)c1)C(C)C (stereo partly drawn) (X6-[ξF][dP]GV-OMe)	1.65	3.42

These compounds were tested on M14 melanoma (assay: NCI anticancer screen, dose series, 48 h).

Structure (SMILES)	GI50 [µM]	TGI [µM]
OCc1ccc(N2CCC2c2ccc(F)cc2)cc1Cl (stereo not drawn)	32.7	> 79.4
COC(=O)c1cc2c(n1S(=O)(=O)c1ccc(C)cc1)C(=O)C(=O)c1[nH]cc(C(=O)OCc3ccccc3)c1-2		0.167
O=C(Nc1ccccc1OC(F)(F)F)Nc1n[nH]c2ccccc12	25.5	> 100
COC(=O)[C@@H](NC(=O)CNC(=O)[C@H]1CCCN1C(=O)C(Cc1ccccc1)NC(=S)Nc1cc(C(F)(F)F)cc(C(F)(F)F)c1)C(C)C (stereo partly drawn) (X6-[ξF][dP]GV-OMe)	3.33	10.5

What follows are compounds tested on IGROV1 ovarian (assay: NCI anticancer screen, dose series, 48 h).

Structure (SMILES)	TGI [µM]	GI50 [µM]
OCc1ccc(N2CCC2c2ccc(F)cc2)cc1Cl (stereo not drawn)	0.742	
COC(=O)c1cc2c(n1S(=O)(=O)c1ccc(C)cc1)C(=O)C(=O)c1[nH]cc(C(=O)OCc3ccccc3)c1-2	0.559	
O=C(Nc1ccccc1OC(F)(F)F)Nc1n[nH]c2ccccc12	83.6	4.59
COC(=O)[C@@H](NC(=O)CNC(=O)[C@H]1CCCN1C(=O)C(Cc1ccccc1)NC(=S)Nc1cc(C(F)(F)F)cc(C(F)(F)F)c1)C(C)C (stereo partly drawn) (X6-[ξF][dP]GV-OMe)	10.3	3.31

Source: PubChem BioAssay (NCI)
